# Assay results taken from US20250009750A1, “METHODS OF TREATING DISORDERS ASSOCIATED WITH EYA OVEREXPRESSION AND MUTATIONS” (The Board of Regents of the University of Texas System, priority 2023, published 2025).
# Legend:
# [1] = molecular target: T1, EYA4 tyrosine phosphatase (Homo sapiens, UniProt O95677); test: Malachite green phosphatase assay, full length EYA4, tyrosine phosphatase activity; format: biochemical; conditions: increasing amounts of inhibitor
# T1 construct: GFP (pEGFP-C1) (N, cleaved yes); made in house; host or cells: Expi293 mammalian suspension cells
# T1 sequence (O95677 1-639): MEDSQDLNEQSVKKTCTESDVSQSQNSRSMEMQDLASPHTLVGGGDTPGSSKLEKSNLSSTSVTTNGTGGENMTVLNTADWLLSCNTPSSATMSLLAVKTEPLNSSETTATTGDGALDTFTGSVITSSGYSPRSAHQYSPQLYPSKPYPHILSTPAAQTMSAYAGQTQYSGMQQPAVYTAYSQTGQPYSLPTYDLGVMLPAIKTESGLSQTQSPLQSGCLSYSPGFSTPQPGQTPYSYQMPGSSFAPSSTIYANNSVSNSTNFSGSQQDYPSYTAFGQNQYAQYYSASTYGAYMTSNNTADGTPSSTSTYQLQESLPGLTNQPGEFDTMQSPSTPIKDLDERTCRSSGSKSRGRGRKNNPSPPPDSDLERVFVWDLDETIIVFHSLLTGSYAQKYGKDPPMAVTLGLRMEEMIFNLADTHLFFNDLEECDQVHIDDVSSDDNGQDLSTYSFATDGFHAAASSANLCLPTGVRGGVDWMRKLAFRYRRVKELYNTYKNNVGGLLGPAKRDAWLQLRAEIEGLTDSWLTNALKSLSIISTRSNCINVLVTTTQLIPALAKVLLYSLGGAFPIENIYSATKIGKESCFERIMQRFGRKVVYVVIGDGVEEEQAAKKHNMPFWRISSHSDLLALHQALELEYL
# Protocol: (§1) To measure phosphatase activity, increasing concentrations of EYA4 (0-200 nM, alone or pre-incubated with ssDNA) were incubated in the presence of 400 nM potential substrates (peptides sourced from Genscript, see list and sequence in figures) in 50 μL of reaction buffer A ([…] pH 6, 2 mM MgCl2, 50 μM DTT) for 1 h at 37° C. At the end of the first incubation, the reaction mix containing malachite green was added to phosphatase or ATPase reactions, and the mixture was further incubated for 30 minutes at 37° C. Plates were read at 620 nm in a plate reader. The quantity of […] was inferred from the standard curve prepared as per manufacturer recommendation (Sigma).
# […] proteins have been described to dephosphorylate residue Y142 on the histone variant H2AX and the same activity was recently confirmed in EYA4. Using the synthetic peptide KATQASQE{pTyr} as substrate and a commercial colorimetric malachite green assay (Sigma) that allows to quantify […] released in the buffer by a phosphatase, EYA4's tyrosine phosphatase activity was assayed in the presence of putative inhibitors.
# In a malachite green assay, the tyrosine but not serine/threonine phosphatase activity was inhibited by CIDD molecule—149689. […]
# [2] = molecular target: T2, EYA4 serine/threonine phosphatase domain (Homo sapiens, UniProt O95677); test: Malachite green phosphatase assay, first 365 residues of EYA4 (serine/threonine phosphatase domain), 53BP1-derived peptide; format: biochemical
# T2 construct: the N-terminus domain of EYA4 (residues 1-365), was sub-cloned as a Strep-mCherry-EYA4-His construct; Strep (N); His (C); made in house; host or cells: Sf9 insect cells (baculovirus, pFastBac1)
# T2 sequence (O95677 1-365): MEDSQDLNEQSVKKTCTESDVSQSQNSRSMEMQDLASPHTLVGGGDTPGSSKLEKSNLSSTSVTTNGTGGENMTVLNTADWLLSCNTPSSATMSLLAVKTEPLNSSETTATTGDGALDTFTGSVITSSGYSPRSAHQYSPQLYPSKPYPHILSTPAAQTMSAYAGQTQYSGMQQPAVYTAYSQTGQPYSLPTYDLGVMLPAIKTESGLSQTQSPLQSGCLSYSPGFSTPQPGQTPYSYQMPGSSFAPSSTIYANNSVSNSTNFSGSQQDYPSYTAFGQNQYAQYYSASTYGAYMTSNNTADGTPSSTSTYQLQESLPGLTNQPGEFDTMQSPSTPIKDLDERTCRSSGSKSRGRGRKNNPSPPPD
# Protocol: as §1
# In a malachite green assay, the tyrosine but not serine/threonine phosphatase activity was inhibited by CIDD molecule—149689. For this assay, full length EYA4 purified near homogeneity as previously described was incubated with increasing amounts of inhibitor, then mixed with either peptide KATQASQE{pTyr} from H2AX or with peptide from RAD51.
# [3] = system: HRD+ pancreatic cell lines; test: Survival of treated pancreatic cell lines panel; format: cell-based; conditions: at the concentrations tested, FIG. 34C
# Description: Using molecules that target regulators of DNA metabolism mechanisms (repair, recombination, replication), such as kinase and phosphatase can offer a therapeutic window for drug resistant, HRD>0 patients. EYA4 inhibitors have been tested on the pancreatic cell lines panel. […] EYA4i have therapeutic potential for the treatment of pancreatic cancer, including PARPi refractory disease.
EYA4 tyrosine phosphatase activity ([1]; peptide KATQASQE{pTyr} from H2AX),EYA4 tyrosine phosphatase activity ([1]; peptide from RAD51),serine/threonine phosphatase activity [2],SMILES,growth of pancreatic cells [3]
significantly reduced,significantly reduced,not inhibited,"Clc1ccc(CNc2nc(NC3CCCC3)nc3ccccc23)cc1Cl [CIDD molecule—149689, N2-cyclopentyl-N4-(3,4-dichlorobenzyl) quinazoline-2,4-diamine]",–
–,–,–,"O=C(NN=Cc1ccc(Sc2ncccn2)o1)c1cccc(Cl)c1 [CSCS14817788384, 3-chloro-N′-{[5-(pyrimidin-2-ylsulfanyl)furan-2-yl]methylidene}benzohydrazide]",does not efficiently inhibit growth
